In patent US6281248A, “Composition for treating asthma” (priority 2000, dated 2001):

How the values were obtained:
[1] = In vitro biochemical testing of N-demethylsertraline
[2] = In vivo pharmacological testing of N-demethylsertraline
[3] = Desmethylsertraline pharmacokinetics, day 1 to day 14; format: in vivo
[4] = system: plasma protein binding of warfarin; experiment: Plasma protein binding of warfarin; format: in vitro ADME; conditions: sertraline up to 300 ng/mL, desmethylsertraline up to 200 ng/mL
[5] = system: plasma protein binding of propranolol; experiment: Plasma protein binding of propranolol; format: in vitro ADME; conditions: sertraline up to 300 ng/mL, desmethylsertraline up to 200 ng/mL
Metabolism = conditions: in vivo
[6] = Plasma clearance in elderly patients
[7] = Solubility of the present invention; format: physicochemical
[8] = In vitro protein binding with radiolabeled 3H-sertraline; format: in vitro ADME; conditions: serum, 20 to 500 ng/mL, read-out: binding to serum proteins (converted)
[9] = Electrocardiograms of patients in double-blind trials; format: in vivo, human; conditions: 774 patients
[10] = system: beta-adrenergic blocking ability of atenolol; experiment: Interaction with atenolol in healthy male subjects; format: in vivo, human; conditions: 100 mg
bacteria = experiment: Bacterial mutation assay; format: cell-based; conditions: with or without metabolic activation
mouse lymphoma = experiment: Mouse lymphoma mutation assay; format: cell-based; conditions: with or without metabolic activation
[11] = single dose, with vs without food
[12] = not given; remark: listed apart in the source
[13] = not given; remark: listed apart in the source
clinical [14] = conditions: human, plasma
clinical [15] = conditions: human, in vivo
clinical [16] = conditions: human, in vivo, mean half-life
clinical [17] = conditions: human, in vivo; remark: listed apart in the source
[18] = system: dopamine neuronal reuptake; experiment: In vitro neuronal dopamine reuptake; conditions: animals

With `N[C@H]1CC[C@@H](c2ccc(Cl)c(Cl)c2)c2ccccc21` [N-demethylsertraline] the “activity in in vitro biochemical testing relative to sertraline” value [1] was “substantially less active than sertraline”, the “activity in in vivo pharmacological testing relative to sertraline” value [2] was “substantially less active than sertraline” and the “increase in AUC (0-24 hour) between day 1 and day 14” value ([3]; day 1 to day 14) was 5-9 fold. The “increase in Cmax between day 1 and day 14” value ([3]; day 1 to day 14) was 5-9 fold, the “increase in Cmin between day 1 and day 14” value ([3]; day 1 to day 14) was 5-9 fold and the “time and dose dependence of AUC (0-24 hour), Cmax, and Cmin” value ([3]; in vivo) was “time-related, dose dependent increases”. For the same compound, the “alteration of plasma protein binding of warfarin” value [4] was “did not alter”, the “alteration of plasma protein binding of propranolol” value [5] was “did not alter” and the metabolic pathway (Metabolism) was “oxidative deamination and subsequent reduction, hydroxylation, and glucuronide conjugation”. The “clearance in older males” value ([6]; older males) was “decreased clearance”.

With `CN[C@H]1CC[C@@H](c2ccc(Cl)c(Cl)c2)c2ccccc21.Cl` [sertraline, (1S-cis)-4-(3,4-dichlorophenyl)-1,2,3,4-tetrahydro-N-methyl-1-naphthalenamine hydrochloride] the solubility in ethanol ([7]; ethanol) was “sparing soluble”, the “solubility in isopropyl alcohol” value ([7]; isopropyl alcohol) was “slightly soluble” and the solubility in water ([7]; water) was “slightly soluble”. The fraction unbound [8] was 0.02, the ECG abnormalities [9] was “not associated with the development of significant ECG abnormalities” and the “effect on the beta-adrenergic blocking ability of atenolol” value [10] was “no effect”. The “genotoxic effects, bacterial mutation assay” value (bacteria) was “no genotoxic effects”, the “genotoxic effects, mouse lymphoma mutation assay” value (mouse lymphoma) was “no genotoxic effects” and the “time to steady-state plasma levels” value (once-daily dosing, based on half-life) was “approximately one”. The Cmax dose proportionality (single dose, 50 to 200 mg) was “proportional to dose”, the AUC with food [11] was “slightly increased” and the “Cmax increase with food” value [11] was 25%. For the same compound, the “unchanged sertraline in the urine” value [12] was “not detectable”, the mean half-life ([13]; human, in vivo) was 27.8 h and the gender associated differences ([13]; pediatric patients, males and females) was “No gender associated differences were observed”. The half-life (clinical [14]) was ~26 h, the dose excreted at 216 h (clinical [15]) was 12 to 14% and the half-life (clinical [16]) was 26.2 h. For the same compound, the half-life (clinical [17]) was 27.2 h, the first pass metabolism (Metabolism) was “extensive first pass metabolism” and the metabolic pathway (Metabolism) was “oxidative deamination and subsequent reduction, hydroxylation, and glucuronide conjugation”. For the same compound, the “principal initial pathway of metabolism” value (Metabolism) was “N-demethylation”, the “effects on dopamine neuronal reuptake” value [18] was “only very weak effects” and the “plasma clearance lower than in younger individuals” value ([6]; elderly, 100 mg/day for 14 days, vs 25 to 32 y.o.) was “approximately 40%”.
